The text below walks through data of US6451990B1, “Azithromycin preparation in its noncryst alline and crystalline dihydrate forms” (Astur-Pharma, S.A., priority 1999, dated 2002).

Read-outs that look alike come from different tables or passages of the source.

Data set [1] is described as follows: Hygroscopicity: water uptake under an atmosphere over 75% relative humidity. In kind it is physicochemical. Particulars: for water content: sample containing 3% water at start, atmosphere over 75% relative humidity. The procedure:
4. Hygroscopicity. Two different samples of non-crystalline azithromycin containing 3% water were kept under an atmosphere over 75% relative humidity. After 8 hours, water content in the first sample was 5.3%, while the second one contained 9.9% water after 72 hours.

The conditions of data set [2]: cited from earlier work; for hygroscopicity of crystalline form: as described in EP 0,298,650.
Data set [3] has as its system gram-positive and some cases of gram-negative bacteria. Particulars: against gram-positive and some cases of gram-negative bacteria; Kirst, Sides 1989; cited from earlier work.

On to `CC[C@H]1OC(=O)[C@H](C)[C@@H](O[C@H]2C[C@@](C)(OC)[C@@H](O)[C@H](C)O2)[C@H](C)[C@@H](O[C@@H]2O[C@H](C)C[C@H](N(C)C)[C@H]2O)[C@](C)(O)C[C@@H](C)CN(C)[C@H](C)[C@@H](O)[C@]1(C)O` [non-crystalline azithromycin, non-crystalline 9-deoxo-9a-aza-9a-methyl-9a-homoerythromycin A], for which the Hygroscopicity entry in data set [1] (conclusion from water uptake over 75% relative humidity) was “moderately hygroscopic”. The water content in data set [1] (after 8 hours (first sample)) worked out at 5.3%; in data set [1] (after 72 hours (second sample)), 9.9%.
Consider `CC[C@H]1OC(=O)[C@H](C)[C@@H](O[C@H]2C[C@@](C)(OC)[C@@H](O)[C@H](C)O2)[C@H](C)[C@@H](O[C@@H]2O[C@H](C)C[C@H](N(C)C)[C@H]2O)[C@](C)(O)C[C@@H](C)CN(C)[C@H](C)[C@@H](O)[C@]1(C)O` [azithromycin monohydrate], for which the “hygroscopicity of crystalline form” value in data set [2] was “hygroscopic”.
Turning to `CC[C@H]1OC(=O)[C@H](C)[C@@H](O[C@H]2C[C@@](C)(OC)[C@@H](O)[C@H](C)O2)[C@H](C)[C@@H](O[C@@H]2O[C@H](C)C[C@H](N(C)C)[C@H]2O)[C@](C)(O)C[C@@H](C)CN(C)[C@H](C)[C@@H](O)[C@]1(C)O` [azithromycin dihydrate, 9-deoxo-9a-aza-9a-methyl-9a-homoerythromycin A dihydrate], in data set [2] (dihydrate), the “hygroscopicity of crystalline form” value is given as “non-hygroscopic”. Further, the “percentile water content (kept constant)” value in data set [2] (theoretical value 4.6%) is recorded as 4.5-5%.
Regarding `CC[C@H]1OC(=O)[C@H](C)[C@@H](O[C@H]2C[C@@](C)(OC)[C@@H](O)[C@H](C)O2)[C@H](C)[C@@H](O[C@@H]2O[C@H](C)C[C@H](N(C)C)[C@H]2O)[C@](C)(O)C[C@@H](C)CN(C)[C@H](C)[C@@H](O)[C@]1(C)O` [Azithromycin, 9-deoxo-9a-aza-9a-methyl-9a-homoerythromycin A], the antimicrobial activity result in data set [3] was “excellent antimicrobial activity”.
